Source: patent publication US20140335203A1, “SYNERGISTIC BLENDS OF ANTIMICROBIALS USEFUL FOR CONTROLLING MICROORGANISMS IN INDUSTRIAL PROCESSES” (Hercules Incorporated, priority 2013, published 2014)
Several values for one entry are separate records, joined by “and”; a condition that tells them apart may be missing. Equal entries are not always repeated. Where two headings read alike, the source gives them in different places.

What was measured:
Lactobacillus plantarum [1] = experiment: Minimal Inhibitory Concentration (MIC), two-fold dilution series in 96 well microplate, antimicrobial used alone; format: cell-based; settings: pH 6; for MIC: Lactiplantibacillus plantarum
Text: While there are various methods known to individuals skilled in the art for measuring levels of antimicrobial activity, in the following examples the endpoint used is known as the Minimal Inhibitory Concentration, or MIC. This is the lowest concentration of a substance or substances which can achieve complete inhibition of growth.
In order to determine the Minimal Inhibitory Concentration, a two-fold dilution series of the antimicrobial is constructed with the dilutions being made in growth media. The dilutions are made in a 96 well microplate such that each well has a final volume of 280 μl of media and antimicrobial. […] After the dilution series is constructed the wells receive an inoculum of microbe suspended in growth media such that the final concentration of microbes in the well is ˜5×10^5 cfu/ml. In these examples the test microbe used is Lactobacillus plantarum. The cultures are incubated at an appropriate temperature for 18-24 hours, and the wells scored as positive or negative for growth based on a visual examination for turbid wells. A turbid well indicates growth has occurred.
Minimal inhibitory concentrations were determined for both chlorine dioxide and citric acid at pH 6 using the protocol described above with Lactobacillus plantarum as the test microbe. Checkerboard synergy plates were constructed as described, the wells inoculated to a final concentration of ˜5×10^5 cfu/ml, incubated for 18-24 hours, and then scored visually for growth/no growth. […] Minimal inhibitory concentrations were determined for both chlorine dioxide and sodium propionate at pH 6 using the protocol described above with Lactobacillus plantarum as the test microbe. Checkerboard synergy plates wore constructed as described, the wells inoculated to a final concentration of ˜5×10^5 cfu/ml, incubated for 18-24 hours, and then scored visually for growth/no growth.
(§1) Minimal inhibitory concentrations were determined for both chlorine dioxide and potassium benzoate at pH 6 using the protocol described above with Lactobacillus plantarum as the test microbe. Checkerboard synergy plates were constructed as described, the wells inoculated to a final concentration of ˜5×10^5 cfu/ml, incubated for 18-24 hours, and then scored visually for growth/no growth.
as §1, with “ascorbic acid” for “potassium benzoate”

Lactobacillus plantarum [2] = experiment: Checkerboard synergy plates (MIC in combination, Synergy Index by Kull et al.); format: cell-based; settings: pH 6
Protocol: Minimal inhibitory concentrations were determined for both chlorine dioxide and citric acid at pH 6 using the protocol described above with Lactobacillus plantarum as the test microbe. Checkerboard synergy plates were constructed as described, the wells inoculated to a final concentration of ˜5×10^5 cfu/ml, incubated for 18-24 hours, and then scored visually for growth/no growth. […] Minimal inhibitory concentrations were determined for both chlorine dioxide and sodium propionate at pH 6 using the protocol described above with Lactobacillus plantarum as the test microbe. Checkerboard synergy plates wore constructed as described, the wells inoculated to a final concentration of ˜5×10^5 cfu/ml, incubated for 18-24 hours, and then scored visually for growth/no growth. […] Minimal inhibitory concentrations were determined for both chlorine dioxide and potassium benzoate at pH 6 using the protocol described above with Lactobacillus plantarum as the test microbe. Checkerboard synergy plates were constructed as described, the wells inoculated to a final concentration of ˜5×10^5 cfu/ml, incubated for 18-24 hours, and then scored visually for growth/no growth. […] Minimal inhibitory concentrations were determined for both chlorine dioxide and ascorbic acid at pH 6 using the protocol described above with Lactobacillus plantarum as the test microbe. […]

Weisella confusa = settings: cited from earlier work
fermentation = settings: cited from earlier work

O=C1O[C@H]([C@@H](O)CO)C(O)=C1O [Ascorbic Acid, ascorbic acid]
MIC (Lactobacillus plantarum [1]; read-out: Ascorbic Acid MIC (QB), used alone): 10 mg/mL

O=C(O)CC(O)(CC(=O)O)C(=O)O [Citric Acid, citric acid]
MIC (Lactobacillus plantarum [1]; read-out: Citric Acid MIC (QB), used alone): 100 mg/mL | Citric Acid MIC (QB), used alone (Lactobacillus plantarum [1]): 100000 ppm | Citric Acid MIC (Qb), used in combination (Lactobacillus plantarum [2]; in combination with ClO2): 390-12,500 ppm

[O][Cl+][O-] [ClO2, chlorine dioxide]
ClO2 MIC (QA), used alone (Lactobacillus plantarum [1]; Table 1 (citric acid series)): 100 ppm | ClO2 MIC (QA), used alone (Lactobacillus plantarum [1]; Table 2 (sodium propionate series)): 115 ppm | ClO2 MIC (QA), used alone (Lactobacillus plantarum [1]; Table 3 (potassium benzoate series)): 115 ppm and 130 ppm | ClO2 MIC (QA), used alone (Lactobacillus plantarum [1]; Table 3 (potassium benzoate series), listed as chlorine dioxide): 115 ppm and 130 ppm | ClO2 MIC (QA), used alone (Lactobacillus plantarum [1]; Table 4 (ascorbic acid series)): 67.5 ppm | ClO2 MIC (Qa), used in combination (Lactobacillus plantarum [2]; in combination with citric acid): 15-60 ppm

O=C([O-])c1ccccc1.[K+] [Potassium Benzoate, potassium benzoate]
Potassium Benzoate MIC (QB), used alone (Lactobacillus plantarum [1]): 100000 ppm | Potassium Benzoate MIC (QB), used alone (Lactobacillus plantarum [1]; listed as potassium benzoate): 100,000 ppm

CCC(=O)[O-].[Na+] [Sodium Propionate, sodium propionate]
Sodium Propionate MIC (QB), used alone (Lactobacillus plantarum [1]): 100000 ppm | Sodium Propionate MIC (QB), used alone (Lactobacillus plantarum [1]; listed as sodium propionate): 100,000 ppm

Virginiamycin
concentration required to inhibit growth of Weisella confusa (Weisella confusa): over 25 mg/L | concentration that will suppress fermentation (fermentation): over 2 mg/L
